Columns and labels:
Format in all cases: functional
Rattus norvegicus [1] = experiment: Antidyslipidemic activity in Triton fed hyperlipidemic Charles Foster rat assessed as reduction in plasma total cholesterol at 100 mg/kg, po; design: scale not given: the % may be the effect or the level left
Rattus norvegicus [2] = experiment: Antidyslipidemic activity in Triton fed hyperlipidemic Charles Foster rat assessed as reduction in plasma phospholipids at 100 mg/kg, po; design: scale not given: the % may be the effect or the level left
Rattus norvegicus [3] = experiment: Antidyslipidemic activity in Triton fed hyperlipidemic Charles Foster rat assessed as reduction in plasma triglyceride level at 100 mg/kg, po; design: scale not given: the % may be the effect or the level left
Rattus norvegicus [4] = experiment: Antidyslipidemic activity in Triton fed hyperlipidemic Charles Foster rat assessed as increase in post heparin lipoprotein lipase activity by measuring free fatty acids formation rate per ml of plasma at 100 mg/kg, po
Rattus norvegicus [5] = organism: Rattus norvegicus; experiment: Increase in lipoprotein lipase activity in Triton fed hyperlipidemic Charles Foster rat plasma assessed as free fatty acids formation rate per ml of plasma relative to untreated Triton control; design: concentration or dose not given beside the values
[6] = Antioxidant activity in microsomes assessed as inhibition of lipid peroxidation by measuring MDA level at 200 ug/ml by spectrophotometry based TBARS method
[7] = Antioxidant activity assessed as inhibition of hydroxyl radical generation at 200 ug/ml by spectrophotometry
[8] = Antioxidant activity assessed as inhibition of superoxide anion radical generation at 200 ug/ml by spectrophotometry

SMILES	Activity (Rattus norvegicus [1]) [%]	Activity (Rattus norvegicus [2]) [%]	Activity (Rattus norvegicus [3]) [%]	Activity (Rattus norvegicus [4]) [%]	Activity (Rattus norvegicus [5]) [%]	inhibition [6] [%]	inhibition [7] [%]	inhibition [8] [%]
CCOC(=O)C(CC)Oc1ccc(NC(=O)COc2ccc3ccccc3c2)cc1 (stereo not drawn)	12	9	13	12	–	–	–	–
CCOC(=O)C(C)(C)Oc1ccc(NC(=O)COc2ccccc2C(C)CC)cc1 (stereo not drawn)	7	10	6	14	–	–	–	–
Cc1ccc(C)c(OCCCC(C)(C)C(=O)O)c1 [GEMFIBROZIL]	31	33	33	31	30	–	–	–
CCOC(=O)CCCOc1ccc(NC(=O)COc2ccc(Cl)cc2Cl)cc1	9	8	7	12	–	–	–	–
CCOC(=O)C(C)Oc1ccc(NC(=O)COc2ccc(Cl)cc2Cl)cc1 (stereo not drawn)	8	7	10	10	–	–	–	–
CCOC(=O)CCCOc1ccc(NC(=O)COc2ccccc2C(C)CC)cc1 (stereo not drawn)	9	10	11	13	–	–	–	–
Cc1c(C)c2c(c(C)c1O)CC[C@@](C)(CCC[C@H](C)CCC[C@H](C)CCCC(C)C)O2	–	–	–	–	–	49	–	–
CCOC(=O)C(C)Oc1ccc(NC(=O)COc2ccc3ccccc3c2)cc1 (stereo not drawn)	23	25	26	26	24	22	25	25
Oc1ncnc2[nH]ncc12	–	–	–	–	–	–	–	41
CCOC(=O)COc1ccc(NC(=O)COc2ccc3ccccc3c2)cc1	14	14	11	15	–	–	–	–
CCOC(=O)C(CC)Oc1ccc(NC(=O)COc2ccccc2C(C)CC)cc1 (stereo not drawn)	10	9	9	5	–	–	–	–
CCOC(=O)C(C)Oc1ccc(NC(=O)COc2ccccc2Cl)cc1 (stereo not drawn)	25	26	25	23	21	26	26	33
CCOC(=O)C(C)(C)Oc1ccc(NC(=O)COc2ccc3ccccc3c2)cc1	25	24	27	23	22	22	22	30
CCOC(=O)C(C)(C)Oc1ccc(NC(=O)COc2ccc(Cl)cc2Cl)cc1	8	4	13	9	–	–	–	–
CCOC(=O)C(C)Oc1ccc(NC(=O)CSc2ccc3ccccc3c2)cc1 (stereo not drawn)	26	24	28	24	26	35	28	31
CCOC(=O)COc1ccc(NC(=O)COc2ccccc2Cl)cc1	6	9	6	9	–	–	–	–
CCOC(=O)C(CC)Oc1ccc(NC(=O)COc2ccc(Cl)cc2Cl)cc1 (stereo not drawn)	2	3	5	4	–	–	–	–
CCOC(=O)C(C)Oc1ccc(NC(=O)COc2ccccc2C(C)CC)cc1 (stereo not drawn)	24	23	24	15	16	25	25	25
CCOC(=O)CCCOc1ccc(NC(=O)COc2ccc3ccccc3c2)cc1	21	19	22	17	–	29	25	27
OC[C@@H](O)[C@@H](O)[C@H](O)[C@H](O)CO	–	–	–	–	–	–	41	–
CCOC(=O)C(CC)Oc1ccc(NC(=O)CSc2ccc3ccccc3c2)cc1 (stereo not drawn)	6	4	5	7	–	–	–	–
CCOC(=O)CCCOc1ccc(NC(=O)COc2ccccc2Cl)cc1	9	6	8	12	–	–	–	–
